For series [1], the target named is T1, RORγ LBD (Homo sapiens (Human), UniProt P51449). In words: RORγ LBD binding (Human RORγ Assay System, INDIGO Biosciences). The settings on record: 0.5% DMSO. How it is done:
Compound binding to the human RORγ LBD was assessed using the Human RORγ Assay System (INDIGO Biosciences Inc.) as per manufacturer's instructions.

The next series relates to FOXP3. Description: Real-time qRT-PCR in TH17 cells: FOXP3 gene expression. The series is classed as cell-based, human. Set-up: key: A: No change in gene expression observed relative to DMSO treated Th17 cells; B: Decreased gene expression observed relative to DMSO treated Th17 cells; C: Increased gene expression observed relative to DMSO treated Th17 cells. How it is done:
(§1) Peripheral blood mononuclear cells (PBMCs) were sourced from freshly prepared leukocyte enriched plasma (buffy coat) from healthy volunteers from which PBMCs were isolated by density gradient centrifugation using Ficoll-Paque™ PLUS (GE Healthcare). Naïve CD4+ T cells were isolated using the Naïve CD4+ T cell Isolation Kit II (Miltenyi Biotec) as per manufacturer's instructions. CD4+ T cells were plated at 5×10^4 cells/well in 96 well plates pre-coated with immobilized human (h)-αCD3 antibody (eBioscience) then differentiated to TH17 cells using h-αCD28, h-αIFNγ, h-αIL4, h-IL6, h-IL23, h-IL1β, h-TGFβ1 (eBioscience) and maintained in a cell culture incubator at 37° C. with 5% CO2 in TexMACS Medium (Miltenyi Biotec) supplemented with 1% Penicillin/Streptomycin (Lonza) over 5 days.
RNA was isolated from TH17 cells and cDNA was synthesized using the Verso cDNA kit (Thermo Scientific) as per manufacturer's instructions. IL-17A, IL-17F, IL-21, IL-22, G-CSF, IL-23R and FOXP3 gene expression were determined for compound treated and untreated TH17 cell samples using Solaris qPCR Gene expression assays (Thermo Scientific) with an iCycler iQ Real-Time PCR Detection System (Bio-Rad). Individual gene expression was normalized to a panel of six reference genes (ACTB, TBP, HPRT1, PGK1, TFRC and PPIA) (Thermo Scientific) and analyzed by REST 2009 (Qiagen) in accordance to MIQE guidelines (Bustin et al. (2009) Clin. Chem, 55:611-622). The effects of compounds on TH17 cytokine mRNA levels are presented as fold change in gene expression of compound treated TH17 cells relative to DMSO treated cells in the table below.

Series [2] concerns the target T2, RORα LBD (Homo sapiens (Human), UniProt P35398). Description: TR-FRET co-repressor NCoR1-D2 interaction with RORα LBD. It counts as biochemical. The text has this: (§2) The Time-Resolved Fluorescence Resonance Energy Transfer (TR-FRET) assay kit (Life Technologies) was used to measure compound efficacy to disrupt or enhance ligand-mediated interaction of the co-activator and co-repressor peptides with the purified GST-tagged (i) RORγ LBD or (ii) […]. The RORγ LBD and RORα LBD each have a basal level of interaction with the co-activator D22 or co-repressor NCoR1-D2 in the absence of ligand, thus it is possible to identify compounds that inhibit or induce RORγ and/or RORα co-activator/co-repressor interactions, thus determining RORα, RORγ, or RORα/RORγ compound selectivity. The assay was performed as per manufacturer's instructions and TR-FRET was assessed 2 and 20 hours post-assay initiation. Compounds were identified to (i) have no impact on either co-activator displacement or […] from the assessed LBD (ii) promote co-activator displacement from the assessed LBD (iii) promote co-repressor recruitment to the assessed LBD or (iv) concurrently promote co-activator displacement from the assessed LBD and co-repressor recruitment to the assessed LBD.

The target in series [3] is T1, RORγ LBD. In words: TR-FRET co-repressor NCoR1-D2 interaction with RORγ LBD. The series is classed as biochemical.
Description: as §2

The target of series [4] is T2, RORα LBD. Description: TR-FRET co-activator D22 interaction with RORα LBD. It counts as biochemical.
Description: as §2

The test system of a further series is IL-17F. In words: TH17 cytokine inhibition as measured by ELISA: IL-17F. The series is classed as cell-based. The settings on record: 120 h; human TH17 cells, 5 days differentiation, ELISA of supernatant. Here is the method:
as §1
(§3) Human CD4+ T cells were differentiated to TH17 cells as described in the presence or absence of various concentrations of compounds in a final concentration of 0.1% DMSO in TexMACS medium. Supernatants were collected and stored at −20° C. until they were to be assayed for IL-17A, IL-17F, IL-17AF, IL-21 and/or IL-22 levels as determined by Ready-Set-Go ELISA kits (eBioscience) as per manufacturer's instructions. Endpoint absorbance was read at 450 nm and 570 nm according to manufacturer's instructions (eBioscience) using a microplate reader (Perkin Elmer). The percentage of cytokine inhibition was calculated with reference to DMSO treated cells and the IC50s were determined by GraphPad Prism software and presented in the table below.

Another series has as its system IL-22. In words: TH17 cytokine inhibition as measured by ELISA: IL-22. It counts as cell-based. The settings on record: 120 h; human TH17 cells, 5 days differentiation, ELISA of supernatant. Here is the method: as §1, §3
A short description of series [5]: TH17 cell viability (Prestoblue). It counts as cell-based. The settings on record: human; percentage of DMSO treated cells; read-out: % viability of compound treated TH17 cells. Also on record: concentration or dose not given beside the values. Here is the method:
as §1
Cells were assayed for viability in the presence or absence of compound using Prestoblue® Cell Viability Reagent (Life Technologies) as per manufacturer's instructions after 30 minutes incubation of TH17 cells with reagent. Absorbance was measured at 570 nm and 600 nm using a microplate reader (Perkin Elmer) and data were analyzed as per manufacturer's instructions. Cell viability was expressed as a percentage of DMSO treated cells.

For series [6], the target named is T1, RORγ LBD. In words: TR-FRET co-activator D22 interaction with RORγ LBD. The series is classed as biochemical.
Description: as §2

For the next series, the system named is TH17 cells. In words: TH17 cellular proliferation (Prestoblue). The settings on record: Homo sapiens, 120 h; 3 μM compound, after 5 day TH17 differentiation, relative to DMSO treated TH17 cells; read-out: % change in TH17 cell number. It counts as cell-based. Here is the method:
as §1
Cellular proliferation was assessed in the presence or absence of 3 μM compound using Prestoblue® Cell Viability Reagent (Life Technologies) as per manufacturer's instructions using absorbance as the output measured by a microplate reader (Perkin Elmer) after 30 minutes of incubation of cells and reagent. A standard curve developed by plotting varying cell numbers versus absorbance was used to assess differences in cellular proliferation between compound treated or untreated cells after the 5 day TH17 differentiation period.

The mark [7] stands for this setting: 2 hr, read-out: RORα EC50 NCoR1-D2 co-repressor recruitment 2 hr.
Where [8] appears, read: 20 hr, read-out: RORα EC50 NCoR1-D2 co-repressor recruitment 20 hr.
[9] abbreviates: 2 hr, read-out: RORγ EC50 NCoR1-D2 co-repressor recruitment 2 hr.
The mark [10] stands for this setting: 20 hr, read-out: RORγ EC50 NCoR1-D2 co-repressor recruitment 20 hr.
Where [11] appears, read: 2 hr, read-out: RORα EC50 D22 co-activator displacement 2 hr.
[12] abbreviates: 20 hr, read-out: RORα EC50 D22 co-activator displacement 20 hr.
[13] abbreviates: 2 hr, read-out: RORγ EC50 D22 co-activator displacement 2 hr.
Where [14] appears, read: 20 hr, read-out: RORγ EC50 D22 co-activator displacement 20 hr.

SMILES strings stand for the structures. Bounds are passed on as bounds.

Results on three molecules are retold here after US9321750B2, “ROR modulators and their uses” (INNOV17 LLC, priority 2012, dated 2016).

T2 sequence (P35398 272-510): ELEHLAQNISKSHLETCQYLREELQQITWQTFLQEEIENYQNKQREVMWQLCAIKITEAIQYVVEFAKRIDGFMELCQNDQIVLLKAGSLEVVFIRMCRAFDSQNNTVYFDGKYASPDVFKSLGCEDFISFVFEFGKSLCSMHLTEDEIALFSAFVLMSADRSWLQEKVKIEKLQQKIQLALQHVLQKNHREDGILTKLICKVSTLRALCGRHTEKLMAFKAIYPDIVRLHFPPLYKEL
T1 sequence (P51449 269-508): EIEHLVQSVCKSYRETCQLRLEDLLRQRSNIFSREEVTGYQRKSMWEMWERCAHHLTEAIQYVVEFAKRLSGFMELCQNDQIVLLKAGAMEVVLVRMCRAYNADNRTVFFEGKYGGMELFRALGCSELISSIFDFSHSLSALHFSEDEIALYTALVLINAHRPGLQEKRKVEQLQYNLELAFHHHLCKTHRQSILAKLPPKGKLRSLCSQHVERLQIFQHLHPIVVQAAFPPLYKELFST

As for `CC(=O)Nc1ccc2c(c1)CCCN2Cc1ccc(C(O)(C(F)(F)F)C(F)(F)F)cc1` [Example 2, N-(1-(4-(1,1,1,3,3,3-hexafluoro-2-hydroxypropan-2-yl)benzyl)-1,2,3,4-tetrahydroquinolin-6-yl)acetamide], the IC50 on RORγ LBD [1], in the series on IL-17F and in the series on IL-22 was less than 10 µM throughout. Also, in the series with FOXP3, the “Fold change in mRNA level of compound treated TH17 cells relative to DMSO treated cells FOXP3” value was “A”. Besides, the EC50 at RORα LBD [2] (setting [7]) is greater than 30 µM; on RORα LBD [2] (setting [8]) it was greater than 30 µM; at RORγ LBD [3] (setting [9]) it was greater than 30 µM; on RORγ LBD [3] (setting [10]) it was greater than 30 µM; on RORα LBD [4] (setting [11]), less than 30 µM; at RORα LBD [4] (setting [12]), greater than 30 µM. Further, the EC50 at RORγ LBD [6] (setting [13]) and at RORγ LBD [6] (setting [14]) was less than 30 µM each time. Further, in series [5], the viability was greater than 80%. The inhibition at 3 µM in the series with TH17 cells was no more than 50%.
Turning to `CS(=O)(=O)Nc1ccc2c(c1)CCCN2Cc1ccc(C(O)(C(F)(F)F)C(F)(F)F)cc1` [Example 5, N-(1-(4-(1,1,1,3,3,3-hexafluoro-2-hydroxypropan-2-yl)benzyl)-1,2,3,4-tetrahydroquinolin-6-yl)methanesulfonamide], the IC50 on RORγ LBD [1], in the series on IL-17F and with IL-22 was less than 10 µM in each case. In the series on FOXP3, the “Fold change in mRNA level of compound treated TH17 cells relative to DMSO treated cells FOXP3” value was “C”. The EC50 at RORα LBD [2] (setting [7]), on RORα LBD [2] (setting [8]), at RORγ LBD [3] (setting [9]), at RORγ LBD [3] (setting [10]), at RORα LBD [4] (setting [11]) and at RORα LBD [4] (setting [12]) was less than 30 µM throughout. Also, the concentration giving a half-maximal response (EC50) at RORγ LBD [6] (setting [13]) is greater than 30 µM; at RORγ LBD [6] (setting [14]), less than 30 µM. Moreover, the viability in series [5] is greater than 80%. The inhibition at 3 µM in the series with TH17 cells was no more than 50%.
Turning to `CC(=O)Nc1ccc2c(c1)CCN2Cc1ccc(C(O)(C(F)(F)F)C(F)(F)F)cc1` [Example 4, N-(1-(4-(1,1,1,3,3,3-hexafluoro-2-hydroxypropan-2-yl)benzyl)indolin-5-yl)acetamide], the IC50 at RORγ LBD [1], in the series with IL-17F and in the series with IL-22 was less than 10 µM each time. Moreover, in the series on FOXP3, the “Fold change in mRNA level of compound treated TH17 cells relative to DMSO treated cells FOXP3” value was “C”. For the same molecule, the half-maximal effective concentration (EC50) at RORα LBD [2] (setting [7]) was greater than 30 µM; at RORα LBD [2] (setting [8]), greater than 30 µM; on RORγ LBD [3] (setting [9]), less than 30 µM; at RORγ LBD [3] (setting [10]), less than 30 µM; on RORα LBD [4] (setting [11]) it was greater than 30 µM; on RORα LBD [4] (setting [12]), greater than 30 µM. Further, the 50% effective concentration (EC50) at RORγ LBD [6] (setting [13]) and at RORγ LBD [6] (setting [14]) was less than 30 µM each time. For the same molecule, in [5], the viability is greater than 80%. In addition, in the series with TH17 cells, the inhibition at 3 µM is greater than 50%.
